Source: patent US20260174867A1, “REDUCTION OF ADIPOSE TISSUE” (LEIOS THERAPEUTICS, INC., priority 2023, published 2026)

What was measured:
[1] = system: human subjects; settings: cited from earlier work
[2] = system: fat tissue; experiment: Propylene glycol as co-solvent injected with polidocanol; assay type: in vivo
[3] = system: inguinal fat pad; experiment: Inguinal fat pad mass after a single treatment of polidocanol; assay type: in vivo; settings: for reduction in inguinal fat pad mass: day 28 after a single treatment
Experimental: For example, reductions in inguinal fat pad mass of 15% were found at day 28 after a single treatment of polidocanol at doses of 0.5% and 1.25%. […] Thus, in embodiments, the polidocanol is administered approximately once per month and/or at concentrations less than about 2.0%. The treatment may employ about 0.1 to 0.3 mL (e.g. 0.2 mL) of a polidocanol at a concentration provided herein. In embodiments, the polidocanol is a concentration of from about 0.5% and 1.25%. The administration may be via injection. In embodiments, the injection is at a spacing of about 0.2 to 0.8 cm apart across the inguinal fat pad. Thus, in embodiments, the polidocanol is administered approximately once per month and/or at concentrations less than 2.0%. The treatment may employ 0.1 to 0.3 mL (e.g., 0.2 mL) of a polidocanol at a concentration provided herein. In embodiments, the polidocanol is a concentration of from 0.5% and 1.25%. The administration may be via injection. In embodiments, the injection is at a spacing of 0.2 to 0.8 cm apart across the inguinal fat pad. In embodiments, the injection is at a spacing of about 0.5 cm apart across the inguinal fat pad.

[4] = Kybella Label, spontaneous and elicited AEs, 1-week post-injection

## C[C@H](CCC(=O)O)[C@H]1CC[C@H]2[C@@H]3CC[C@@H]4C[C@H](O)CC[C@]4(C)[C@H]3C[C@H](O)[C@]12C [Kybella, deoxycholic acid]
[1]; [4]
  AE Proportions Post Treatment: Anesthesia (Numbness): 66%
  AE Proportions Post Treatment: Bruising: 72%
  AE Proportions Post Treatment: Edema/Swelling: 87%
  AE Proportions Post Treatment: Erythema: 27%
  AE Proportions Post Treatment: Induration: 23%
  AE Proportions Post Treatment: Nerve Injury: 4%
  AE Proportions Post Treatment: Nodule: 13%
  AE Proportions Post Treatment: Pain: 70%
  AE Proportions Post Treatment: Paresthesia: 14%
  AE Proportions Post Treatment: Pruritis: 12%
[1]; Kybella Label
  Injection site adverse events lasting >30 days: Edema/Swelling: 20%
  Injection site adverse events lasting >30 days: Induration: 13%
  Injection site adverse events lasting >30 days: Injection Site Pain: 16%
  Injection site adverse events lasting >30 days: Numbness: 42%
[1]; compared to placebo, FIGS. 9A and 9B
  injection-site adverse events (swelling/edema, bruising, pain) per treatment session: significantly higher percentage of subjects exhibited an adverse reaction
[1]; subcutaneous injection
  of said subjects, injection related side effect which lasts for more than 30 days: up to 42%
  subjects exhibiting an injection related side effect: ≤ 87%

## CC(O)CO (centres unmarked) [propylene glycol]
[2]
  irritation when injected with polidocanol: non-irritating
  patchy and incomplete fat tissue necrosis relative to the absence of co-solvent: reduced amount of patchy and incomplete fat tissue necrosis

## polidocanol
[3]; concentration 2.0%
  reduction in inguinal fat pad mass: 10%
[3]; dose 0.5%
  reduction in inguinal fat pad mass: 15%
[3]; dose 1.25%
  reduction in inguinal fat pad mass: 15%
[3]; in vivo
  visible change of inguinal fat pad / body contour: externally visible reduction in inguinal fat pad fullness
